Assay results taken from patent US4490388A, “Amidine compound and anticomplement agent comprising same” (Torii & Co., Ltd., priority 1981, dated 1984).
Read-outs that look alike come from different tables or passages of the source.

Key:
Plasmin = Plasmin (Homo sapiens, UniProt P00747); test: Anti-plasmin activity (hydrolysis of TAME); assay type: biochemical
Protocol: (§1) The anti-trypsin, anti-plasmin, anti-kallikrein and anti-thrombin activities were determined according to the method of Muramatsu et al. [M. Muramatsu, T. Onishi, S. Makino, Y. Hayashi and S. Fujii, J. of Biochem., 58, 214 (1965)]. The data summarized in Table 1 are expressed in terms of molar concentration (id50) of the test compound which inhibits 50% of the activity of each enzyme to hydrolyze TAME (tosylarginine methyl ester). The compound No. corresponds to the compound number shown in Examples.

complement = test: Inhibition of complement mediated hemolysis; assay type: cell-based; conditions: read-out: Inhibition of complement mediated hemolysis (%)
Protocol: The complement mediated hemolysis is widely used as a means to determine the titration of complement. The principle of this method is based on the fact that hemolysis is caused by the activation of complement, when the latter is added to a complex (immune complex) of erythrocytes and the autibody thereof. The degree of hemolysis varies in proportion to the amount of complement added. Therefore, when a known amount of complement admixed with a C1 esterase inhibitor is used, the hemolysis must be suppressed in proportion to the inhibitory activity.
The anti-C1 esterase (C1r, C1s) activity was determined according to the method of Okamura et al. [K. Okamura, M. Muramatsu and B. Fujii, Biochem. Biophys. […] The inhibition of complement mediated hemolysis was determined according to the method of Baker et al. [B. R. Baker and E. H. Erickson, J. Med. Chem., 12, 408-414 (1969)].

Trypsin = target: T1, Trypsin (Bos taurus, UniProt P00760); test: Anti-trypsin activity (hydrolysis of TAME); assay type: biochemical
T1 sequence (P00760 24-246): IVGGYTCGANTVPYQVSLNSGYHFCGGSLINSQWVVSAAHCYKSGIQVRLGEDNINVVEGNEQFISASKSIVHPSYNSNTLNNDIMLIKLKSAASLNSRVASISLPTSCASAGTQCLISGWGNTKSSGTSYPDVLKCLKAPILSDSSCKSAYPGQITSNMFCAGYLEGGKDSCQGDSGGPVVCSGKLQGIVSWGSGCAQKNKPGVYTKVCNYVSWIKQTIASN
Protocol: as §1

C1r = target: T2, C1r (Homo sapiens, UniProt P00736); test: Anti-C1 esterase activity, C1r (hydrolysis of AAME); assay type: biochemical; conditions: for inhibition at 10 µM: at 1×10^-5 M, read-out: Anti-C1 activity, C1r percent inhibition; for IC50: molar concentration inhibiting 50% of AAME hydrolysis, read-out: Anti-C1 activity, C1r id50
T2 sequence (P00736 464-705 limits assumed): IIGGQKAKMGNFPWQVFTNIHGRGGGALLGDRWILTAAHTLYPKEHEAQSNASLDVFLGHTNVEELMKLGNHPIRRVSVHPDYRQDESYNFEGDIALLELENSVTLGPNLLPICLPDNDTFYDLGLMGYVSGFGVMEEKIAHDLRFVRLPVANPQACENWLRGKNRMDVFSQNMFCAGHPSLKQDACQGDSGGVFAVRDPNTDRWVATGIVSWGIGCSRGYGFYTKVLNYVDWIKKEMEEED
T2 sequence (P00736 18-463 partner limits assumed): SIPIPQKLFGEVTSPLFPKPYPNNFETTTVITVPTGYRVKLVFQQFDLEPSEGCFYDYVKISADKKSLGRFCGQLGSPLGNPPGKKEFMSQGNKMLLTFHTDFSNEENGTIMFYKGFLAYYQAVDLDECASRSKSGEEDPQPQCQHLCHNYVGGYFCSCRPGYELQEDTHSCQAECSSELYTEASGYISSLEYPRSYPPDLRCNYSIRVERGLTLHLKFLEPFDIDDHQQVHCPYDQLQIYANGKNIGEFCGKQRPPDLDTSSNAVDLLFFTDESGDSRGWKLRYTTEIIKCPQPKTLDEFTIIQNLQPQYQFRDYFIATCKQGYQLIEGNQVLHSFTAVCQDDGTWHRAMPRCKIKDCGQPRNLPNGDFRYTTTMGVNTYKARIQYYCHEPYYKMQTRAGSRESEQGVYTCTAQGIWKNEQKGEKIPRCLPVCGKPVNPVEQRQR
Protocol: The anti-C1 esterase (C1r, C1s) activity was determined according to the method of Okamura et al. [K. Okamura, M. Muramatsu and B. Fujii, Biochem. Biophys. […] The figures in Table 2 have the following meanings:
C1r: Molar concentration of the test compound which inhibits 50% of the ability of C1r to hydrolyse AAME (acetylarginin methyl ester) (id50).

Thrombin = Thrombin (Bos taurus, UniProt P00735); test: Anti-thrombin activity (hydrolysis of TAME); assay type: biochemical
Protocol: as §1

[1] = Toxicity, median lethal dose (LD50); conditions: in vivo
[2] = molar concentration inhibiting 50% of TAME hydrolysis, read-out: id50, Plasmin
[3] = molar concentration inhibiting 50% of TAME hydrolysis, read-out: id50, Trypsin

Chain of Plasmin (P00747 581-810 limits assumed): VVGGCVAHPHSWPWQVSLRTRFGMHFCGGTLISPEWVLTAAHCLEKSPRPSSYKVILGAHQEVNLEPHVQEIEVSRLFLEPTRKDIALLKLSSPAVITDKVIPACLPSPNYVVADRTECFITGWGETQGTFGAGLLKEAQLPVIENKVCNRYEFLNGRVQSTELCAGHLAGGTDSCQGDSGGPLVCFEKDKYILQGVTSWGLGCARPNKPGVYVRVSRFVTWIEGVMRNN
Chain of Plasmin (P00747 97-580 partner limits assumed): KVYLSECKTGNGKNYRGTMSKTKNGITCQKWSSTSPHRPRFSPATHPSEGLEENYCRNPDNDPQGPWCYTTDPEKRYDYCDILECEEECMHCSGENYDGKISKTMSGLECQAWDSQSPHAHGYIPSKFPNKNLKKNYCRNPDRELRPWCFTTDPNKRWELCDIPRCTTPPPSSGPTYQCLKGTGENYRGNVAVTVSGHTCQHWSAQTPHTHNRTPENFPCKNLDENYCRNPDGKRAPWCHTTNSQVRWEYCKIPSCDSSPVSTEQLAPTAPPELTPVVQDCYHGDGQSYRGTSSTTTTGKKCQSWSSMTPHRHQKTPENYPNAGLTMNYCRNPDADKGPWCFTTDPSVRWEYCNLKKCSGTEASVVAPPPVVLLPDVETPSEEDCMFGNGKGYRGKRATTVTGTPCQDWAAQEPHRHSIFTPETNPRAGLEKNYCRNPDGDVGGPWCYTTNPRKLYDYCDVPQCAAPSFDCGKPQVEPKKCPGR

SMILES: N=C(N)C=Cc1ccc(OC(=O)CCCCCNC(=N)N)cc1 [Compound 9, 4-(β-amidinoethenyl)phenyl 6-guanidinocaproate]
- IC50 (Plasmin; [2]): > 10 µM
- inhibition at 100 µM (complement; 1 × 10^-4 M): 97%
- inhibition at 10 µM (complement; 1 × 10^-5 M): 72%
- inhibition at 0.1 µM (complement; 1 × 10^-7 M): 0%
- inhibition at 1 µM (complement): 6%
- IC50 (Trypsin; [3]): 30 nM
- inhibition at 10 µM (C1r): 28%
- IC50 (Thrombin): > 10 µM

SMILES: N=C(N)C=Cc1ccc(OC(=O)[C@H]2CC[C@H](CN)CC2)cc1 [Compound 10, 4-(β-amidinoethenyl)phenyl trans-4-aminomethylcyclohexanecarboxylate]
- IC50 (Plasmin; [2]): 6 µM
- inhibition at 100 µM (complement; 1 × 10^-4 M): 100%
- inhibition at 10 µM (complement; 1 × 10^-5 M): 99%
- inhibition at 1 µM (complement; 1 × 10^-6 M): 98%
- inhibition at 0.1 µM (complement; 1 × 10^-7 M): 74%
- IC50 (Trypsin; [3]): 6000 nM
- inhibition at 10 µM (C1r): 46%
- IC50 (Thrombin): > 10 µM

SMILES: N=C(N)C=Cc1ccc(OC(=O)[C@H]2CC[C@H](CNC(=O)OCc3ccccc3)CC2)cc1 [Compound 11, 4-(β-amidinoethenyl)phenyl trans-4-benzyloxycarbonylaminomethylcyclohexanecarboxylate]
- IC50 (Plasmin; [2]): 0.3 µM
- inhibition at 10 µM (complement; 1 × 10^-5 M): 99%
- inhibition at 1 µM (complement; 1 × 10^-6 M): 82%
- inhibition at 0.1 µM (complement): 25%
- inhibition at 100 µM (complement): 95%
- IC50 (Trypsin; [3]): 5000 nM
- IC50 (C1r): 5000 nM
- IC50 (Thrombin): > 10 µM

SMILES: N=C(N)C=Cc1ccc(OC(=O)Cc2ccccc2)cc1 [Compound 13, 4-(β-amidinoethenyl)phenyl phenylacetate]
- IC50 (Plasmin): 10 µM
- inhibition at 0.1 µM (complement): 0%
- inhibition at 1 µM (complement): 6%
- inhibition at 10 µM (complement): 31%
- inhibition at 100 µM (complement): 99%
- IC50 (Trypsin): 1000 nM
- inhibition at 10 µM (C1r): 21%
- IC50 (Thrombin): 5 µM

SMILES: CC(C)Cc1ccc(C(C)C(=O)Oc2ccc(C=CC(=N)N)cc2)cc1 (stereo not shown) [Compound 14]
- IC50 (Plasmin; [2]): 8 µM
- inhibition at 100 µM (complement; 1 × 10^-4 M): 0%
- inhibition at 10 µM (complement; 1 × 10^-5 M): 74%
- inhibition at 1 µM (complement; 1 × 10^-6 M): 10%
- inhibition at 0.1 µM (complement; 1 × 10^-7 M): 0%
- IC50 (Trypsin; [3]): 9000 nM
- inhibition at 10 µM (C1r): 38%
- IC50 (Thrombin): 8 µM

SMILES: N=C(N)C=Cc1ccc(OC(=O)CCc2ccccc2)cc1 [Compound 15]
- IC50 (Plasmin; [2]): > 10 µM
- inhibition at 10 µM (complement; 1 × 10^-5 M): 10%
- inhibition at 0.1 µM (complement; 1 × 10^-7 M): 0%
- inhibition at 1 µM (complement): 2%
- inhibition at 100 µM (complement): 80%
- IC50 (Trypsin; [3]): 2000 nM
- inhibition at 10 µM (C1r): 10%
- IC50 (Thrombin): > 10 µM

SMILES: Cc1ccc(C(=O)Oc2ccc(C=CC(=N)N)cc2)cc1 [Compound 20]
- IC50 (Plasmin; [2]): 4 µM
- inhibition at 100 µM (complement; 1 × 10^-4 M): 97%
- inhibition at 10 µM (complement; 1 × 10^-5 M): 75%
- inhibition at 1 µM (complement; 1 × 10^-6 M): 38%
- inhibition at 0.1 µM (complement; 1 × 10^-7 M): 17%
- IC50 (Trypsin; [3]): 30 nM
- IC50 (C1r): 1000 nM
- IC50 (Thrombin): > 10 µM

SMILES: CC(C)(C)c1ccc(C(=O)Oc2ccc(C=CC(=N)N)cc2)cc1 [Compound 22]
- IC50 (Plasmin; [2]): 3 µM
- inhibition at 100 µM (complement; 1 × 10^-4 M): 88%
- inhibition at 10 µM (complement; 1 × 10^-5 M): 76%
- inhibition at 1 µM (complement; 1 × 10^-6 M): 25%
- inhibition at 0.1 µM (complement; 1 × 10^-7 M): 11%
- IC50 (Trypsin; [3]): 5000 nM
- IC50 (C1r): 5000 nM
- IC50 (Thrombin): 3 µM

SMILES: N=C(N)C=Cc1ccc(OC(=O)c2ccc(OCc3ccccc3)cc2)cc1 [Compound 26]
- IC50 (Plasmin; [2]): > 10 µM
- inhibition at 100 µM (complement; 1 × 10^-4 M): 38%
- inhibition at 10 µM (complement; 1 × 10^-5 M): 14%
- inhibition at 1 µM (complement; 1 × 10^-6 M): 6%
- inhibition at 0.1 µM (complement; 1 × 10^-7 M): 0%
- IC50 (Trypsin; [3]): 200 nM
- inhibition at 10 µM (C1r): 37%
- IC50 (Thrombin): > 10 µM

SMILES: CSc1ccc(C(=O)Oc2ccc(C=CC(=N)N)cc2)cc1 [Compound 28]
- IC50 (Plasmin; [2]): 1 µM
- inhibition at 100 µM (complement; 1 × 10^-4 M): 97%
- inhibition at 10 µM (complement; 1 × 10^-5 M): 71%
- inhibition at 1 µM (complement; 1 × 10^-6 M): 34%
- inhibition at 0.1 µM (complement): 23%
- inhibition at 10 µM (Trypsin; at 1×10^-5 M, read-out: percentage inhibition, Trypsin): 26%
- IC50 (C1r): 900 nM
- IC50 (Thrombin): 3 µM

SMILES: N=C(N)C=Cc1ccc(OC(=O)c2ccc(C=O)cc2)cc1 [Compound 30]
- IC50 (Plasmin; [2]): 0.6 µM
- inhibition at 100 µM (complement; 1 × 10^-4 M): 99%
- inhibition at 10 µM (complement; 1 × 10^-5 M): 94%
- inhibition at 1 µM (complement; 1 × 10^-6 M): 62%
- inhibition at 0.1 µM (complement): 45%
- IC50 (Trypsin; [3]): 4000 nM
- IC50 (C1r): 1000 nM
- IC50 (Thrombin): 0.6 µM

SMILES: CN(C)c1ccc(C(=O)Oc2ccc(C=CC(=N)N)cc2)cc1 [Compound 32]
- IC50 (Plasmin; [2]): > 10 µM
- inhibition at 100 µM (complement; 1 × 10^-4 M): 73%
- inhibition at 10 µM (complement; 1 × 10^-5 M): 80%
- inhibition at 1 µM (complement; 1 × 10^-6 M): 50%
- inhibition at 0.1 µM (complement; 1 × 10^-7 M): 32%
- IC50 (Trypsin; [3]): 1000 nM
- IC50 (C1r): 10000 nM
- IC50 (Thrombin): > 10 µM

SMILES: N=C(N)C=Cc1ccc(OC(=O)c2ccc(CN)cc2)cc1 [Compound 34]
- LD50 ([1]; ip): 200 mg/kg
- LD50 ([1]; po): 2500 mg/kg
- inhibition at 100 µM (complement; 1 × 10^-4 M): 100%
- inhibition at 10 µM (complement; 1 × 10^-5 M): 99%
- inhibition at 1 µM (complement; 1 × 10^-6 M): 99%
- inhibition at 0.1 µM (complement; 1 × 10^-7 M): 86%

SMILES: N=C(N)C=Cc1ccc(OC(=O)c2ccc(Cl)cc2)cc1 [Compound 39]
- IC50 (Plasmin; [2]): 4 µM
- inhibition at 100 µM (complement; 1 × 10^-4 M): 100%
- inhibition at 10 µM (complement; 1 × 10^-5 M): 99%
- inhibition at 1 µM (complement; 1 × 10^-6 M): 89%
- inhibition at 0.1 µM (complement; 1 × 10^-7 M): 71%
- IC50 (Trypsin; [3]): 2000 nM
- IC50 (C1r): 500 nM
- IC50 (Thrombin): 2 µM

SMILES: N=C(N)C=Cc1ccc(OC(=O)C=Cc2cccc(C(F)(F)F)c2)cc1 [Compound 41]
- IC50 (Plasmin; [2]): 3 µM
- inhibition at 100 µM (complement; 1 × 10^-4 M): 71%
- inhibition at 10 µM (complement; 1 × 10^-5 M): 10%
- inhibition at 1 µM (complement; 1 × 10^-6 M): 10%
- inhibition at 0.1 µM (complement; 1 × 10^-7 M): 0%
- IC50 (Trypsin; [3]): 3000 nM
- inhibition at 10 µM (C1r): 20%
- IC50 (Thrombin): > 10 µM
